ChEMBL document CHEMBL1177682, “Hypoxic selectivity and solubility--investigating the properties of A-ring substituted nitro seco-1,2,9,9a-tetrahydrocyclopropa[c]benz[e]indol-4-ones (nitroCBIs) as hypoxia-activated prodrugs for antitumor therapy” (Bioorg Med Chem, 2010)
Active and inactive are the calls of the source. The calls are words filed in the database; no cut-off is given here.

Columns and labels:
HT-29 [1] = experiment: Cytotoxicity against human HT-29 cells under aerobic condition after 5 days by SRB assay; type: functional, cell-based; settings: HT-29, 120 h
SK-OV-3 [2] = experiment: Cytotoxicity against human SKOV3 cells under hypoxic condition after 5 days by SRB assay; type: functional, cell-based; settings: SK-OV-3, 120 h
HT-29 [3] = experiment: Cytotoxicity against human HT-29 cells under hypoxic condition after 5 days by SRB assay; type: functional, cell-based; settings: HT-29, 120 h
SK-OV-3 [4] = experiment: Cytotoxicity against human SKOV3 cells under aerobic condition after 5 days by SRB assay; type: functional, cell-based; settings: SK-OV-3, 120 h
SK-OV-3 [5] = experiment: Hypoxic cytotoxicity ratio IC50 for human SKOV3 cells under aerobic condition to IC50 for human HT-29 cells under hypoxic condition; type: functional
HT-29 [6] = experiment: Hypoxic cytotoxicity ratio IC50 for human HT-29 cells under aerobic condition to IC50 for human HT-29 cells under hypoxic condition; type: functional
[7] = AUC (0 to 180 mins) in CD1 mouse at 23.7 umol/kg, iv; type: ADME, organism-based; design: time < 3 hr, dose 23.7 umol/kg, route intravenous; settings: plasma
[8] = Plasma concentration in CD1 mouse at 23.7 umol/kg, iv after 15 mins; type: ADME, organism-based
[9] = Toxicity against human HT-29 xenografted ip dosed CD1 mouse assessed as maximum tolerated dose; type: organism-based; settings: in vivo, read-out: Activity
HT-29 [10] = experiment: Antitumor activity against human HT-29 cells xenografted in CD1 mouse after 18 hrs; type: functional, cell-based

SMILES | IC50 (HT-29 [1]) | IC50 (SK-OV-3 [2]) | IC50 (HT-29 [3]) | IC50 (SK-OV-3 [4]) | Ratio IC50 (SK-OV-3 [5]) | Ratio IC50 (HT-29 [6]) | AUC(0-t) at 3 h [7] | concentration at […] [8] | MTD [9] | Activity (HT-29 [10])
CNS(=O)(=O)c1ccc2c3c(cc(N)c2c1)N(C(=O)c1cc2cc(OCCN(C)C)ccc2[nH]1)CC3CCl (stereo not given) | 24 nM | 11 nM | 20 nM | 20 nM | – | – | – | – | – | –
CN(C)CCOc1ccc2[nH]c(C(=O)N3CC(CCl)c4c3cc([N+](=O)[O-])c3cc(N)ccc43)cc2c1 (stereo not given) | 1800 nM | 1300 nM | 760 nM | 2500 nM | 2 | 2.4 | – | – | – | –
COc1cc2cc(C(=O)N3CC(CCl)c4c3cc([N+](=O)[O-])c3cc(C(=O)NCCN(C)C)ccc43)[nH]c2c(OC)c1OC (stereo not given) | 1500 nM | 140 nM | 300 nM | 2000 nM | 24 | 5.9 | – | – | – | –
CN(C)CCOc1ccc2[nH]c(C(=O)N3CC(CCl)c4c3cc([N+](=O)[O-])c3cc(S(=O)(=O)NN)ccc43)cc2c1 (stereo not given) | 31000 nM | 210 nM | 160 nM | 33000 nM | 160 | 220 | – | – | – | –
CN(C)CCOc1ccc2[nH]c(C(=O)N3CC(CCl)c4c3cc([N+](=O)[O-])c3cc(S(N)(=O)=O)ccc43)cc2c1 (stereo not given) | 4600 nM | 28 nM | 18 nM | 6900 nM | – | – | – | – | – | –
CN(C)CCOc1ccc2[nH]c(C(=O)N3CC(CCl)c4c3cc([N+](=O)[O-])c3cc(S(=O)(=O)N(C)C)ccc43)cc2c1 (stereo not given) | 1100 nM | 210 nM | 370 nM | 500 nM | 2.4 | 3.6 | – | – | – | –
CN(C)CCOc1ccc2[nH]c(C(=O)N3CC(CCl)c4c3cc([N+](=O)[O-])c3cc(S(=O)(=O)NO)ccc43)cc2c1 (stereo not given) | 24000 nM | 450 nM | 150 nM | 24000 nM | 55 | 160 | – | – | – | –
CNS(=O)(=O)c1ccc2c3c(cc([N+](=O)[O-])c2c1)N(C(=O)c1cc2cc(OCCN(C)C)ccc2[nH]1)CC3CCl (stereo not given) | 2700 nM | 120 nM | 130 nM | 2600 nM | 21 | 24 | – | – | – | –
CN(C)CCNS(=O)(=O)c1ccc2c3c(cc([N+](=O)[O-])c2c1)N(C(=O)c1cc2cc(OCCN(C)C)ccc2[nH]1)CC3CCl (stereo not given) | 730 nM | 6.6 nM | 9 nM | 830 nM | 130 | 110 | < 0.03 µM·h | < 10 nM | 23.7 µmol/kg | inactive
COc1cc2cc(C(=O)N3CC(CCl)c4c3cc([N+](=O)[O-])c3ccc(C(=O)NCCN(C)C)cc43)[nH]c2c(OC)c1OC (stereo not given) | 1300 nM | 180 nM | 540 nM | 2500 nM | 16 | 2.4 | – | – | – | –
